A melting point compilation (Tetko et al.; mined from patent text by program, amines drawn as free bases though some values may be those of a salt)

| melting point | SMILES |
| --- | --- |
| 150 to 153 °C | Fc1cc(C(F)(F)F)ccc1/C=C/c1nc(COc2ccc(-c3nc(Cn4ccnc4)co3)cc2)co1 |
| 161 °C | CCOC(=O)n1ccc(=O)c2cnc(N3CCN(CC)CC3)nc21 |
| 142 to 143 °C | Cc1nc(N2CCN(Cc3ccc(C(F)F)o3)C2=O)sc1C(=O)NCc1cccnc1 |
| 160 to 162 °C | Cc1cc(C)nc(-n2ccnc2S(=O)Cc2ccccc2NC=O)c1 (stereo not given) |
| 187 to 188 °C | Nc1cc(NC(=O)c2ccccc2)ccn1 |
| 197 °C | CCc1c[nH]c(-c2ccc3c(c2)N(C(C)CN2CCCC2)c2ccccc2S3)n1 (racemic) |
| 131 °C | CN(C(=O)c1cc2ccccc2c(-c2ccccc2Cl)n1)C1CCCCC1 |
| 186 to 187 °C | Cc1cccc(C(=O)Nc2cn(C3CCCCO3)nc2C(=O)NCCC#N)n1 (stereo not given) |
| 98 to 100 °C | CCc1nnc2c(N(CC)CC)nc3ccccc3n12 |
| 222 to 224 °C | COc1cc(C(N)=O)c([N+](=O)[O-])cc1OCc1ccccc1 |
| 116 to 117 °C | CCCc1ccc(OCc2ccc(OCc3nc(-c4ccccc4)oc3C)cc2)c(CC(=O)O)c1 |
| 125 to 126 °C | Clc1cccc(CSc2nnc(-c3ccc4occc4c3)o2)c1 |
| 135 to 138 °C | O=C(c1ccccc1)N1CCN(Cc2ccccc2)CCN1C(=O)c1ccccc1 |
| 132 to 133 °C | COc1c(Cl)ccc(-c2nc(C(=O)OCc3ccccc3)c(Cl)c(N)c2F)c1F |
| 149 to 150 °C | CCOc1nc(N2CCSCC2)nc(Cl)c1[N+](=O)[O-] |
| 120 to 122 °C | CC(=O)Oc1ccc(C(=O)c2ccc(OC(C)=O)cc2)cc1 |
| 208 °C | Cn1c(C(F)(F)F)nn(-c2cc(O)c(C#N)cc2F)c1=O |
| 147 °C | COc1cc(C(=O)N2CCN(C(=O)c3cc(OC)c(OC)c(OC)c3)C(COC(=O)N3CCCCC3)C2)cc(OC)c1OC (stereo not given) |
| 283 to 285 °C | Cc1ccc2c(c1)C(=O)c1nc3ccccc3c(=O)n1-2 |

| melting point | SMILES |
| --- | --- |
| 86 to 88 °C | CCCOC1(c2ccc(C)cc2C)N=C(c2ccc(C)cc2C)N=CN1 (stereo not given) |
| 249 to 250 °C | O=C(NCc1ccc(O)cc1)c1[nH]c2ccc(Cl)cc2c1S(=O)(=O)c1ccccc1 |
| 225 to 227 °C | N#Cc1cccc(-c2cc(-c3cc(C#N)ccc3[N+](=O)[O-])no2)c1 |
| 105 to 107 °C | CC(=O)Nc1ccc2c(c1)nc(/C=C/c1ccccc1)n2-c1ccccn1 |
| 176 to 177 °C | CC(C)C1C(C=C(Br)Br)=CC=CN1C12CC3CC(CC(C3)C1)C2 (stereo not given) |
| 157 to 158 °C | O=C1CN(c2ccccc2)C(=O)N1S(=O)(=O)c1ccc(Oc2ccccc2)cc1 |
| 103 to 105 °C | CC(=O)NC(=O)CSC(=O)c1ccco1 |
| 250 to 252 °C | O=C1CCC(N2C(=O)c3cccc(CNC(=O)Nc4cccc5ccccc45)c3C2=O)C(=O)N1 (stereo not given) |
| 97 to 98 °C | COC=C(C(=O)OC)c1ccccc1CON=C(C)c1noc2ccccc12 |
| 124 to 125 °C | O=C(c1ncco1)c1ccc([N+](=O)[O-])cc1Cl |
| 88.5 to 90.5 °C | CC(C)(C)OC(=O)N1CCc2cc(-c3ccc(Cl)cc3)ccc2C1 |
| 202 to 205 °C | CN(N)C(=O)c1ccc(O)c(O)c1 |
| 142 to 143 °C | COC(=O)[C@@H](Cc1ccccc1)NC(=O)OCc1cc2cc(-c3ccccc3)ccc2[nH]1 |
| 112 °C | COc1ccc(O)c(CN2CCN(C(=S)SC)CC2)c1 |
| 95 to 96 °C | CC/C(=C(/c1ccc(O)cc1)c1ccc(OCCN(C)C)cc1)c1ccc(C(C)C)cc1 |
| 161 to 173 °C | Cc1cccc2sc(S)nc12 |
| 247 to 249 °C | COc1c(Cl)cc(C(=O)Nc2c(Cl)cncc2Cl)c2c3ccccc3n(CC3CCCCC3)c12 |
| 148 to 151 °C | COc1cc(OC)nc(OC(C(=O)O)C2c3ccccc3CC2C)n1 (stereo not given) |

Continued, compound first:

| SMILES | melting point |
| --- | --- |
| O=C(NS(=O)(=O)c1ncccc1C(F)(F)F)Oc1ccccc1 | 130 to 134 °C |
| CSc1ccc2n1CCC2C#N (stereo not given) | 58 to 58.5 °C |
| COC(=O)Cc1sc(=O)[nH]c1/C=C/c1ccccc1 | 164 °C |
| COc1ccccc1CNC1CCN(C2CCN(C(=O)c3cc(C)cc(C)c3)C(Cc3ccccc3)C2)CC1 (stereo not given) | 71.2 °C |
| Cn1c(CC(=O)O)ccc1C(=O)c1ccc(F)cc1 | 164 to 165 °C |
| O=C(c1nc(-c2ccccc2)nc2ccccc12)N1CCCCC1 | 160 °C |
| CCOC(=O)C(OC)C(=O)Nc1cccc(Cl)c1 (stereo not given) | 43.5 to 46.5 °C |
| O=C(N[C@H]1CC[C@H](CCN2CCC(c3cccc4c3CCO4)CC2)CC1)c1ccc(Cl)cc1 | 224 °C |
| CCC(CC)(CC(=O)Nc1cccc(OCc2ccc3ccc(OCc4ccccc4)cc3n2)c1)C(=O)O | 89 to 95 °C |
| O=C(NCc1ccsc1)N(O)CCO | 114 to 115 °C |
| CN(C)C=Cc1nc2ccccc2c(=O)n1-c1ccccc1Cl | 228 to 230 °C |
| N=C(Nc1ccc2c(C3CN4CCC3CC4)c[nH]c2c1)c1cccs1 (stereo not given) | 144 to 146 °C |
| CC1(C)Cc2c(CO)c(O)c3c(c2C(c2ccccc2)=N1)CC(C)(C)O3 | 210 to 230 °C |
| O=c1[nH]c2c(Cl)cccc2c(=O)n1CCCN1CC=C(c2cccc(C(F)(F)F)c2)CC1 | 205 to 210 °C |
| O=C(Nc1ccccn1)Nc1cccc2c1C1CC3(CCN1C2=O)SCCS3 (stereo not given) | 242 °C |
| CCCNC(=O)C=Cc1ccc2ccn(Cc3ccc(C(=O)O)cc3OC)c2c1 | 210 to 212 °C |
| CCCCCc1ccc(C=Nc2ccc(C#N)cc2)cc1 | 45.6 to 46.4 °C |

| SMILES | melting point |
| --- | --- |
| COc1ccc(OCCCCCCc2c(C)n[nH]c2O)c(Cl)c1 | 145 to 146 °C |
| O=C1Nc2cccnc2N(C(=O)CN2CCN(CCN3CCOCC3)CC2)c2ccccc21 | 227 to 229 °C |
| O=C(Nc1ccccc1)Nc1cccc(-c2c(-c3ccccc3)cnc3c(C(F)(F)F)cccc23)c1 | 202 to 205 °C |
| Cc1ccc(S(=O)(=O)Oc2ccc(Cl)c3c2C(=O)c2cnccc2C3=O)cc1 | 193 to 195 °C |
| O=C(O)Cc1ccc2oc(-c3ccc(N4C=CC=CN4c4ccc(-c5nc6cc(CC(=O)O)ccc6o5)cc4)cc3)nc2c1 | > 300 °C |
| O=C(Nc1cccc(C(F)(F)F)c1)c1cccc2cc(Oc3cc(CO)ncn3)ccc12 | 183 to 184 °C |
| CCOC(=O)C(C#N)=Cc1ccc(OCCc2nc(-c3ccccc3Cl)oc2C)cc1 | 120 to 121 °C |
| CCOC(=O)c1ncn2c(-c3cccc(C(F)(F)F)c3)ccnc12 | 232 to 234 °C |
| CCOC(=O)c1c(-c2ccccc2C)c2cc3c(cc2n(C)c1=O)CCC3 | 134 to 135 °C |
| CCCCCCCCC/C=C(\C)C(=O)O | 28 to 31 °C |
| CC(C)N1CCN(C(=O)c2cc(N)cc(C(F)(F)F)c2)CC1 | 89 to 90 °C |
| CCCCCCCCCCCC(=O)Oc1ccc2cc(C(=N)N)ccc2c1 | 149 to 151 °C |
| Oc1ccc2nc(-c3ccc(O)c(Cl)c3)oc2c1 | 254 to 256 °C |
| CN1CCN(C2CC3(C)C(CCC4C3CCC3(C)C(O)C(N5CCCCC5)CC43)CC2O)CC1 (stereo not given) | 230 to 234 °C |
| CN(c1cc2c3c(c1)CCCC3CCC2)c1ncc(C(=O)O)cn1 | 255 to 256 °C |
| C=NC(c1cccc(Nc2n[nH]c3ncnc(Nc4cccc(Cl)c4)c23)c1)N(C)C (stereo not given) | 175 to 177 °C |
